Reference: paper PMC7732128, “Regulation of gene transcription by thyroid hormone receptor β agonists in clinical development for the treatment of non-alcoholic steatohepatitis (NASH)” (PLoS ONE, 2020)
“Also recorded” adds a separate entry of the source. Read-outs that look alike come from different tables or passages of the source.

How the values were obtained:
[1] = High-fat diet fed rat study: plasma compound concentration (LC-MS/MS); type: in vivo; details: male, Sprague Dawley, po, HFD rats, read-out: Plasma AUC0-24hrs
Method: (§1) Eighty-four male Sprague Dawley rats, approximately 8 to 11 weeks of age, were fed with either a normal diet, ND (D12450K: 10 kcal% fat, no sucrose), or high-fat diet, HFD (D12109C: 40 kcal% fat, 1.25 gm% cholesterol, 0.5 gm% sodium cholate, 12.5 gm% sucrose). After 12 days of diet consumption, baseline serum total cholesterol and low-density lipoprotein cholesterol (LDL-C) levels were measured with the cobas 6000 c501 Chemistry Analyzer (Roche) to confirm hypercholesterolemia in the HFD fed rats. Animals were then randomized into treatment groups.
Twenty-four hrs after dosing, animals were euthanized by CO2 inhalation and serum and plasma were collected along with liver tissue. Serum total cholesterol and LDL-C levels were determined as described above. […] Caudate lobes of the liver were used for analysis of hepatic total cholesterol (Abcam, ab65390) and triglyceride levels (Abcam, ab65336) via enzyme-linked immunosorbent assay. Right lateral lobes were stored in RNAlater (Invitrogen, AM7020) at -70°C until homogenization with the Scientz-48 TissueLyser LT for downstream gene expression analysis. RNA extraction was performed at WuXi AppTec (Hong Kong) Limited (China) with the RNeasy Mini Kit (Qiagen, 74106) and RNA concentration and quality was determined using the Nanodrop 2000 (Thermo Scientific); additional quality control was assessed with agarose gel electrophoresis. One μg total RNA from each sample was then reverse-transcribed using the High Capacity cDNA Reverse Transcription kit (Applied Biosystems, 4368814) and the resulting cDNA was diluted 1:5 with nuclease-free, distilled water. Gene expression was measured using TaqMan Fast Advanced Master Mix and the following TaqMan Gene Expression assays: Actb (Rn00667869_m1), Cpt1a (Rn00580702_m1), Dio1 (Rn00572183_m1), Me1 (Rn00561502_m1), Rplp1 (Rn03467157_gH), and Thrsp (Rn01511034_m1). Actb and Rplp1 served as control housekeeping genes. […] Relative quantification (RQ) of gene expression was calculated via the 2^−ΔΔCt method and statistical analysis was performed in GraphPad Prism 8.0 and Microsoft Excel.

HFD fed rats = test: High-fat diet fed rat study: serum and hepatic lipid levels; type: in vivo
Method: Animals were purchased from Vital River Laboratory Animal Technology Co. Ltd. and experiments were conducted at Covance Pharmaceutical R&D (Shanghai) Co., Ltd. (China). Animals were group-housed in polycarbonate cages with corncob bedding under controlled temperature (21–25°C), humidity (40–70%), and a 12-hr light/dark cycle. All procedures performed were in compliance with local animal welfare legislation, Covance global policies and procedures, and the Guide for the Care and Use of Laboratory Animals.
as §1
Twenty-four hrs after dosing, animals were euthanized by CO2 inhalation and serum and plasma were collected along with liver tissue. Serum total cholesterol and LDL-C levels were determined as described above. […] Caudate lobes of the liver were used for analysis of hepatic total cholesterol (Abcam, ab65390) and triglyceride levels (Abcam, ab65336) via enzyme-linked immunosorbent assay. Right lateral lobes were stored in RNAlater (Invitrogen, AM7020) at -70°C until homogenization with the Scientz-48 TissueLyser LT for downstream gene expression analysis. RNA extraction was performed at WuXi AppTec (Hong Kong) Limited (China) with the RNeasy Mini Kit (Qiagen, 74106) and RNA concentration and quality was determined using the Nanodrop 2000 (Thermo Scientific); additional quality control was assessed with agarose gel electrophoresis. One μg total RNA from each sample was then reverse-transcribed using the High Capacity cDNA Reverse Transcription kit (Applied Biosystems, 4368814) and the resulting cDNA was diluted 1:5 with nuclease-free, distilled water. Gene expression was measured using TaqMan Fast Advanced Master Mix and the following TaqMan Gene Expression assays: Actb (Rn00667869_m1), Cpt1a (Rn00580702_m1), Dio1 (Rn00572183_m1), Me1 (Rn00561502_m1), Rplp1 (Rn03467157_gH), and Thrsp (Rn01511034_m1). Actb and Rplp1 served as control housekeeping genes. Ten μL reactions were run on the qTOWER³ 84. Relative quantification (RQ) of gene expression was calculated via the 2^−ΔΔCt method and statistical analysis was performed in GraphPad Prism 8.0 and Microsoft Excel.

[2] = 0.5 mg/kg P.O. single dose, 24 hrs
[3] = 5.0 and 1.5 mg/kg P.O. single dose, 24 hrs post-dose

Question: With CC(C)c1cc(Oc2c(Cl)cc(-n3nc(C#N)c(=O)[nH]c3=O)cc2Cl)n[nH]c1=O [MGL-3196, 2-[3,5-dichloro-4-(5-isopropyl-6-oxo-1,6-dihydropyridazin-3-yloxy)phenyl]-3,5-dioxo-2,3,4,5-tetrahydro[1,2,4]triazine-6-carbonitrile] as the molecule, how does the AUC(0-t) ([1]; 0.5 mg/kg P.O. single dose) read?
Answer: Its AUC(0-t) is 2600 ng·h/mL.

Question: What about the AUC(0-t) ([1]; 1.5 mg/kg P.O. single dose) of the same molecule?
Answer: Its AUC(0-t) is 8200 ng·h/mL.

Question: And the AUC(0-t) ([1]; 5.0 mg/kg P.O. single dose)?
Answer: The AUC(0-t) was 21700 ng·h/mL.

Question: What about the “effect on serum LDL-C” value (HFD fed rats; [2]) of the same molecule?
Answer: Its value is “did not significantly lower”.

Question: And the “effect on serum total cholesterol” value (HFD fed rats; [2])?
Answer: The value was “no significant effect; also recorded: did not significantly lower”.

Question: And the “effect on serum triglyceride levels” value (HFD fed rats; [2])?
Answer: The value was “did not have a significant effect; also recorded: did not significantly lower”.

Question: What about the “decrease in serum triglyceride levels (pre-dose vs 24 hrs post-dose)” value (HFD fed rats; 1.5 mg/kg P.O. single dose) of the same molecule?
Answer: The value was 37.5%.

Question: What about the “decrease in serum total cholesterol (pre-dose vs 24 hrs post-dose)” value (HFD fed rats; 5 mg/kg P.O. single dose) of the same molecule?
Answer: The value was 33.6%.

Question: What about the “decrease in serum triglyceride levels (pre-dose vs 24 hrs post-dose)” value (HFD fed rats; 5.0 mg/kg P.O. single dose) of the same molecule?
Answer: Its value is 32.1%.

Question: And the “effect on hepatic cholesterol levels” value (HFD fed rats; [3])?
Answer: The value was “did not significantly affect”.

Question: What about the “effect on hepatic triglyceride levels” value (HFD fed rats; [3]) of the same molecule?
Answer: Its value is “did not significantly affect”.
